Patent US20260102383A1, “LPAR1 Inhibitors” (AbbVie Inc., priority 2024, published 2026)

Target: T1, human LPAR1 (Homo sapiens, UniProt Q92633)
T1 construct: host or cells: TangoEDG2-bla U2OS cells
Assay: Arrestin assay (Arrestin Reporter EDG2-bla U2OS), inhibition of LPA-stimulated signal
Type: cell-based
Conditions: TangoEDG2-bla U2OS cells expressing human LPAR1; 0.25 μM LPA; read-out: Arrestin Reporter EDG2-bla U2OS Human Merged IC50
Outline: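 IC50 comes from a variable-slope 4-parameter fit of % inhibition, calculated from the beta-lactamase FRET ratio (emission 460/530 nm, excitation 409 nm, 2 h development at RT). Compounds, 10 μM down to 0.00006 μM in 3-fold steps, were given 1 h before 0.25 μM final LPA for 3 h in TangoEDG2-bla U2OS cells.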

T1 sequence (Q92633 whole entry): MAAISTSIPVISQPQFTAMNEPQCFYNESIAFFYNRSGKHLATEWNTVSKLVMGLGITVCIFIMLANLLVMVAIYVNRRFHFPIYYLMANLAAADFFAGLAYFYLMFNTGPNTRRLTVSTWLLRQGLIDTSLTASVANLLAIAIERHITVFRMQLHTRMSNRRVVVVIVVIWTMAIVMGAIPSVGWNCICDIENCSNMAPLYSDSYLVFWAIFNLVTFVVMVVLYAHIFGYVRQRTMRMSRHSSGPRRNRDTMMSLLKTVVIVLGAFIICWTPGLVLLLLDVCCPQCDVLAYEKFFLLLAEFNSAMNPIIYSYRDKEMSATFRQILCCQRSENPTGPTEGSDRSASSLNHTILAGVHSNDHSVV

Row | Compound | IC50 [nM]
1 | CC(C)c1ccnn1C1(C(=O)Nc2ccc(Cl)cc2OC(F)F)CCN(CC2(C(=O)O)CC2)CC1 [Compound 76, 1-[[4-[[4-chloro-2-(difluoromethoxy)phenyl]carbamoyl]-4-(5-isopropylpyrazol-1-yl)-1-piperidyl]methyl]cyclopropanecarboxylic acid] | 65.5
2 | CC(C)c1ccnn1C1(C(=O)Nc2ccc(Cl)cc2OC(F)F)CCN(CC2(C(=O)O)CCC(=O)CC2)CC1 [Compound 27, 1-[[4-[[4-chloro-2-(difluoromethoxy)phenyl]carbamoyl]-4-(5-isopropylpyrazol-1-yl)-1-piperidyl]methyl]-4-oxo-cyclohexanecarboxylic acid] | 14.2
3 | COc1cnn([C@H](CN2CCC(C(=O)Nc3ccc(Cl)cc3OC(F)F)(n3nccc3C(C)C)CC2)C(=O)O)c1 [Compound 224, (2R)-3-[4-[[4-chloro-2-(difluoromethoxy)phenyl]carbamoyl]-4-(5-isopropylpyrazol-1-yl)-1-piperidyl]-2-(4-methoxypyrazol-1-yl)propanoic acid] | 31.1
4 | CC(C)c1ccnn1C1(C(=O)Nc2ccc(Cl)cc2OC(F)F)CCN(C[C@H](C(=O)O)[C@H]2CCOC2)CC1 [Compound 148, (2R)-3-[4-[[4-chloro-2-(difluoromethoxy)phenyl]carbamoyl]-4-(5-isopropylpyrazol-1-yl)-1-piperidyl]-2-[(3R)-tetrahydrofuran-3-yl]propanoic acid] | 50.4
5 | CC(C)c1ccnn1C1(C(=O)Nc2ccc(Cl)cc2OC(F)F)CCN(CC(C(=O)O)C2CCOC(C)(C)C2)CC1 (centres unmarked) [Compound 171, 3-[4-[[4-chloro-2-(difluoromethoxy)phenyl]carbamoyl]-4-(5-isopropylpyrazol-1-yl)-1-piperidyl]-2-(2,2-dimethyltetrahydropyran-4-yl)propanoic acid] | 92.6
6 | CC1(C)CCc2cnn(C3(C(=O)Nc4ccc(Cl)cc4OC(F)F)CCN(CC4(C(=O)O)CCOCC4)CC3)c21 [Compound 35, 4-[[4-[[4-chloro-2-(difluoromethoxy)phenyl]carbamoyl]-4-(6,6-dimethyl-4,5-dihydrocyclopenta[c]pyrazol-1-yl)-1-piperidyl]methyl]tetrahydropyran-4-carboxylic acid] | 43.6
7 | CCOCC1(C(=O)N2CCC(CN3CCC(C(=O)Nc4ccc(Cl)cc4OC(F)F)(n4nccc4C(C)C)CC3)(C(=O)O)CC2)CC1 [Compound 85, 4-[[4-[[4-chloro-2-(difluoromethoxy)phenyl]carbamoyl]-4-(5-isopropylpyrazol-1-yl)-1-piperidyl]methyl]-1-[1-(ethoxymethyl)cyclopropanecarbonyl] piperidine-4-carboxylic acid] | 53.7
8 | CC(C)c1ccnn1C1(C(=O)Nc2ccc(Cl)cc2OC(F)F)CCN(C[C@]2(C(=O)O)CCCCO2)CC1 (single isomer, unassigned) [Compound 39, (2.5)-2-[[4-[[4-chloro-2-(difluoromethoxy)phenyl]carbamoyl]-4-(5-isopropylpyrazol-1-yl)-1-piperidyl]methyl]tetrahydropyran-2-carboxylic acid] | 13
9 | COCC(OC)C(=O)N1CCC(CN2CCC(C(=O)Nc3ccc(Cl)cc3OC(F)F)(n3nccc3C(C)C)CC2)(C(=O)O)CC1 (centres unmarked) [Compound 60, 4-[[4-[[4-chloro-2-(difluoromethoxy)phenyl]carbamoyl]-4-(5-isopropylpyrazol-1-yl)-1-piperidyl]methyl]-1-(2,3-dimethoxypropanoyl) piperidine-4-carboxylic acid] | 91.2
10 | CC(C)c1ccnn1C1(C(=O)Nc2ccc(Cl)cc2OC(F)F)CCN(C2(CC(=O)O)CCOCC2)CC1 [Compound 128, 2-[4-[4-[[4-chloro-2-(difluoromethoxy)phenyl]carbamoyl]-4-(5-isopropylpyrazol-1-yl)-1-piperidyl]tetrahydropyran-4-yl]acetic acid] | 56
11 | COC1CCC(C(CN2CCC(C(=O)Nc3ccc(Cl)cc3OC(F)F)(n3nccc3C(C)C)CC2)C(=O)O)CC1 (centres unmarked) [Compound 145, 3-[4-[[4-chloro-2-(difluoromethoxy)phenyl]carbamoyl]-4-(5-isopropylpyrazol-1-yl)-1-piperidyl]-2-(4-methoxycyclohexyl) propanoic acid] | 40.9
12 | CO[C@H]1C[C@@H]([C@@H](CN2CCC(C(=O)Nc3ccc(Cl)cc3OC(F)F)(n3nccc3C(C)C)CC2)C(=O)O)C1 [Compound 227, (2S)-3-[4-[[4-chloro-2-(difluoromethoxy)phenyl]carbamoyl]-4-(5-isopropylpyrazol-1-yl)-1-piperidyl]-2-((1s,3R)-3-methoxycyclobutyl) propanoic acid] | 38.3
13 | CC(C)c1ccnn1C1(C(=O)Nc2ccc(Cl)cc2OC(F)F)CCN(C[C@@H](C(=O)O)N2C[C@H](C)O[C@@H](C)C2)CC1 [Compound 167, (2S)-3-[4-[[4-chloro-2-(difluoromethoxy)phenyl]carbamoyl]-4-(5-isopropylpyrazol-1-yl)-1-piperidyl]-2-[(2S,6S)-2,6-dimethylmorpholin-4-yl]propanoic acid] | 108
14 | CC(C)c1ccnn1C1(C(=O)Nc2ccc(Cl)cc2OC(F)F)CCN([C@H]2C[C@@H](C(=O)O)C2)CC1 (single isomer, unassigned) [Compound 61, (1s,3s)-3-[4-[[4-chloro-2-(difluoromethoxy)phenyl]carbamoyl]-4-(5-isopropylpyrazol-1-yl)-1-piperidyl]cyclobutanecarboxylic acid] | 34.5
15 | CC(C)c1ccnn1C1(C(=O)Nc2ccc(Cl)cc2OC(F)F)CCN(CC2(C(=O)O)CCN(C(=O)OCC(C)(C)C)CC2)CC1 [Compound 90, 4-[[4-[[4-chloro-2-(difluoromethoxy)phenyl]carbamoyl]-4-(5-isopropylpyrazol-1-yl)-1-piperidyl]methyl]-1-(2,2-dimethylpropoxycarbonyl) piperidine-4-carboxylic acid] | 5.54
16 | CC(C)c1ccnn1C1(C(=O)Nc2ccc(Cl)cc2OC(F)F)CCN(C[C@@H](C(=O)O)[C@H](C)O)CC1 [Compound 223, (2R,3S)-2-[[4-[[4-chloro-2-(difluoromethoxy)phenyl]carbamoyl]-4-(5-isopropylpyrazol-1-yl)-1-piperidyl]methyl]-3-hydroxy-butanoic acid] | 59.5
17 | CC(C)c1ccnn1C1(C(=O)Nc2ccc(Cl)cc2OC(F)F)CCN(CC2(C(=O)O)CCS(=O)(=O)CC2)CC1 [Compound 65, 4-[[4-[[4-chloro-2-(difluoromethoxy)phenyl]carbamoyl]-4-(5-isopropylpyrazol-1-yl)-1-piperidyl]methyl]-1,1-dioxo-thiane-4-carboxylic acid] | 9.87
18 | CC(C)c1c(F)cnn1C1(C(=O)Nc2ccc(Cl)cc2OC(F)F)CCN(CC2(C(=O)O)CCC(=O)CC2)CC1 [Compound 153, 1-[[4-[[4-chloro-2-(difluoromethoxy)phenyl]carbamoyl]-4-(4-fluoro-5-isopropyl-pyrazol-1-yl)-1-piperidyl]methyl]-4-oxo-cyclohexanecarboxylic acid] | 30.4
19 | CC(C)c1ccnn1C1(C(=O)Nc2ccc(Cl)cc2OC(F)F)CCN(CC2(C(=O)O)CCN(C(=O)C34CC(F)(C3)C4)CC2)CC1 [Compound 72, 4-[[4-[[4-chloro-2-(difluoromethoxy)phenyl]carbamoyl]-4-(5-isopropylpyrazol-1-yl)-1-piperidyl]methyl]-1-(3-fluorobicyclo[1.1.1]pentane-1-carbonyl)piperidine-4-carboxylic acid] | 18.8
20 | CCOC[C@H](CN1CCC(C(=O)Nc2ccc(Cl)cc2OC(F)F)(n2nccc2C(C)C)CC1)C(=O)O [Compound 228, (2S)-2-[[4-[[4-chloro-2-(difluoromethoxy)phenyl]carbamoyl]-4-(5-isopropylpyrazol-1-yl)-1-piperidyl]methyl]-3-ethoxy-propanoic acid] | 16.6
21 | CC(C)c1ccnn1C1(C(=O)Nc2ccc(Cl)cc2OC(F)F)CCN(C[C@@H](C(=O)O)N2C[C@@H](C)O[C@H](C)C2)CC1 [Compound 160, (2S)-3-[4-[[4-chloro-2-(difluoromethoxy)phenyl]carbamoyl]-4-(5-isopropylpyrazol-1-yl)-1-piperidyl]-2-[(2R,6R)-2,6-dimethylmorpholin-4-yl]propanoic acid] | 86.9
22 | CC(C)c1ccnn1C1(C(=O)Nc2ccc(Cl)cc2OC(F)F)CCN(C(=N)[C@@H]2C[C@@H]2C(=O)O)CC1 [Compound 96, (1S,2R)-2-[4-[[4-chloro-2-(difluoromethoxy)phenyl]carbamoyl]-4-(5-isopropylpyrazol-1-yl)piperidine-1-carboximidoyl] cyclopropanecarboxylic acid] | 23.4
23 | CC[C@@H](CN1CCC(C(=O)Nc2ccc(Cl)cc2OC(F)F)(n2nccc2C(C)C)CC1)C(=O)O [Compound 126, (2S)-2-[[4-[[4-chloro-2-(difluoromethoxy)phenyl]carbamoyl]-4-(5-isopropylpyrazol-1-yl)-1-piperidyl]methyl] butanoic acid] | 22.1
24 | CC(C)c1ccnn1C1(C(=O)Nc2ccc(Cl)cc2OC(F)F)CCN(C[C@@H](CC#N)C(=O)O)CC1 [Compound 168, (2R)-2-[[4-[[4-chloro-2-(difluoromethoxy)phenyl]carbamoyl]-4-(5-isopropylpyrazol-1-yl)-1-piperidyl]methyl]-3-cyano-propanoic acid] | 28.8
25 | COC[C@H](CN1CCC(C(=O)Nc2ccc(Cl)cc2OC(F)F)(n2nccc2C(C)C)CC1)C(=O)O [Compound 118, (2S)-2-[[4-[[4-chloro-2-(difluoromethoxy)phenyl]carbamoyl]-4-(5-isopropylpyrazol-1-yl)-1-piperidyl]methyl]-3-methoxy-propanoic acid] | 20.8
26 | (2S)-3-[4-[[4-chloro-2- (difluoromethoxy)phenyl] carbamoyl]-4-1(65)-6- methyl-5,6-dihydro-4H- cyclopenta[c]pyrazol-1- yl]-1-piperidyl]-2- tetrahydropyran-4-yl- propanoic acid [Compound 174] | 50.2
